Common to all, as to test: in vitro antibacterial activity, broth microdilution method (CLSI M31-A2), MIC
Holding throughout (format): cell-based
A general note: Dilution methods test growth across graded concentrations, often in twofold steps.

In one test the test system is A. pleuropneumoniae. The procedure: (§1) The compound obtained in the present invention was measured for its in vitro antibacterial activity by a broth microdilution method in accordance with a CLSI method (formerly NCCLS method, […]-A2) (Performance Standards for Antimicrobial Disk and Dilution Susceptibility Tests for Bacteria Isolated from Animals; Approved Standard-Second Edition NCCLS […]-A2 Vol. 22 No. 6 2002). A medium composition used in the measurement is shown below. […] The resultant test drug solution was further subjected to two-step dilution with the liquid medium shown below to prepare a test drug solution at each concentration level. The thus prepared test drug solution at each concentration level was dispensed into a 96-well microplate at 100 μL/well, and a test bacterial strain was inoculated at about 5×10^4 CFU/well. After having been cultured in the presence of 5% CO2 gas at 37° C. for 20 to 24 hours, the test bacterial strain was visually observed for the presence or absence of its growth. A minimum drug concentration completely inhibiting the growth of the test bacterial strain was defined as a minimum inhibitory concentration (hereinafter referred to as MIC). […] Saponin was dissolved with purified water. The solution was sterilized and then added to defibrinated horse blood.

The next test concerns M. haemolytica. The method, then: as §1
The next test has as its system H. somni. The procedure:
as §1

A further test deals with P. multocida. The procedure:
as §1

Another test deals with H. parasuis. The method, then:
as §1

Setting [1] is: A. pleuropneumoniae strain 10895-2R.
Where [2] appears, read: A. pleuropneumoniae strain 11684-7R.
Where [3] appears, read: A. pleuropneumoniae strain 11796-1R.
Setting [4] is: A. pleuropneumoniae strain 11804-2R.
Where [5] appears, read: A. pleuropneumoniae strain ATCC27089.
Setting [6] is: P. multocida (bovine) strain 11272R.
Setting [7] is: P. multocida (bovine) strain 11325-1R.
Where [8] appears, read: P. multocida (bovine) strain 11787-24R1.
The mark [9] stands for this setting: P. multocida (bovine) strain ATCC43019.
Setting [10] is: P. multocida (swine) strain 11587-3R.
The mark [11] stands for this setting: P. multocida (swine) strain 11745-15R.
Where [12] appears, read: P. multocida (swine) strain ATCC43137.

Molecules are shown by their SMILES. In brackets after ≈: the same amount, converted by molar mass.

The term MIC denotes the smallest concentration in the dilution series that meets the test's criterion for growth inhibition. High values mean a need for much substance, low ones inhibition by little substance.

Turning to `CCC(=O)OC1CC(=O)OC(C)CC(O)C(N(C)CCCc2ccnc3ccccc23)C=CC(OC(C)=O)C(C)CC(CC=O)C(OC2OC(C)C(O)C(N(C)C)C2O)C1OC` (stereo not drawn) [(IIIa)], the MIC against A. pleuropneumoniae (setting [1]) came to 4 µg/mL (≈ 4.59 µM); in the test on A. pleuropneumoniae (setting [2]), 16 µg/mL (≈ 18.3 µM); against A. pleuropneumoniae (setting [3]), 4 µg/mL (≈ 4.59 µM); in the test with A. pleuropneumoniae (setting [4]) it was 4 µg/mL (≈ 4.59 µM); against A. pleuropneumoniae (setting [5]), 4 µg/mL (≈ 4.59 µM); against M. haemolytica (M. haemolytica strain 11443R), 2 µg/mL (≈ 2.29 µM). Also, the MIC against M. haemolytica (M. haemolytica strain 11467-2R) is 4 µg/mL (≈ 4.59 µM); with H. somni (H. somni strain 11321R), 0.5 µg/mL (≈ 0.573 µM); with H. somni (H. somni strain 11423-3R) it was 1 µg/mL (≈ 1.15 µM); in the test with P. multocida (setting [6]), 4 µg/mL (≈ 4.59 µM); in the test on P. multocida (setting [7]), 2 µg/mL (≈ 2.29 µM); against P. multocida (setting [8]) it was 4 µg/mL (≈ 4.59 µM). Further, the MIC in the test with P. multocida (setting [9]) was determined as 4 µg/mL (≈ 4.59 µM); in the test with P. multocida (setting [10]) it was 4 µg/mL (≈ 4.59 µM); against P. multocida (setting [11]), 4 µg/mL (≈ 4.59 µM); in the test on P. multocida (setting [12]) it was 2 µg/mL (≈ 2.29 µM); against H. parasuis (H. parasuis strain 11510-1-2R) it was 0.25 µg/mL (≈ 0.287 µM); against H. parasuis (H. parasuis strain 11640-1R) it was 2 µg/mL (≈ 2.29 µM).
`CO[C@@H]1C(OC2O[C@@H](C)C(O)C(N(C)C)C2O)[C@@H](CC=O)C[C@@H](C)[C@@H](OC(C)=O)/C=C/[C@@H](N(C)CCCc2ccnc3ccccc23)[C@@H](O)C[C@@H](C)OC(=O)C[C@H]1OC(C)=O` (stereo partly drawn) [(IIIb)]: the MIC against A. pleuropneumoniae (setting [1]) came to 4 µg/mL (≈ 4.66 µM); in the test with A. pleuropneumoniae (setting [2]), 32 µg/mL (≈ 37.3 µM); in the test with A. pleuropneumoniae (setting [3]), 4 µg/mL (≈ 4.66 µM); with A. pleuropneumoniae (setting [4]), 8 µg/mL (≈ 9.32 µM); against A. pleuropneumoniae (setting [5]), 4 µg/mL (≈ 4.66 µM); against M. haemolytica (M. haemolytica strain 11443R), 4 µg/mL (≈ 4.66 µM). Further, the MIC in the test on M. haemolytica (M. haemolytica strain 11467-2R) came to 4 µg/mL (≈ 4.66 µM); with H. somni (H. somni strain 11321R), 0.5 µg/mL (≈ 0.583 µM); with H. somni (H. somni strain 11423-3R), 1 µg/mL (≈ 1.17 µM); in the test on P. multocida (setting [6]), 4 µg/mL (≈ 4.66 µM); with P. multocida (setting [7]), 2 µg/mL (≈ 2.33 µM); against P. multocida (setting [8]) it was 4 µg/mL (≈ 4.66 µM). In addition, the minimum inhibitory concentration (MIC) against P. multocida (setting [9]) came to 4 µg/mL (≈ 4.66 µM); in the test on P. multocida (setting [10]), 4 µg/mL (≈ 4.66 µM); in the test on P. multocida (setting [11]), 4 µg/mL (≈ 4.66 µM); against P. multocida (setting [12]), 4 µg/mL (≈ 4.66 µM); with H. parasuis (H. parasuis strain 11510-1-2R), 0.5 µg/mL (≈ 0.583 µM); in the test on H. parasuis (H. parasuis strain 11640-1R), 4 µg/mL (≈ 4.66 µM).

For the origin of these results see patent US20140039171A1, “NOVEL MACROLIDE INTERMEDIATE AND NOVEL PRODUCTION PROCESS” (MEIJI SEIKA PHARMA CO., LTD., priority 2011, published 2014).
